Structures can show the parent of a compound that is named as a salt.

The target in one series is human MCH-1 receptor (Homo sapiens (Human), UniProt Q99705). Put plainly: Binding assay for human melanin-concentrating hormone (MCH1) receptor. To be noted: membranes from CHO-K1 cells expressing human MCH1 receptor, 1.4 nM [3H]-labeled radioligand, 60 min at 25° C., pH 7.4, Ki from Cheng Prusoff equation. The procedure:
Binding Assay for Human Melanin-Concentrating Hormone (MCH1) Receptor
Evaluation of the affinity of compounds for the human MCH-1 receptor was accomplished using 4-(3,4,5-tritritiumbenzyloxy)-1-(1-(2-(pyrrolidin-1-yl)ethyl)-1H-indazol-5-yl)pyridin-2(1H)-one and membranes prepared from stable CHO-K1 cells expressing the human MCH1 receptor obtained from Euroscreen (Batch 1138). Cell membrane homogenates (8.92 μg protein) were incubated for 60 min at 25° C. with 1.4 nM of the [^3H]-labeled compound in the absence or presence of the test compound in 50 mM Tris-HCl buffer, pH 7.4. Nonspecific binding was determined in the presence of 50 μM 1-(5-(4-cyanophenyl)bicyclo[3.1.0]hexan-2-yl)-3-(4-fluoro-3-(trifluoromethyl)phenyl)-1-(3-(4-methylpiperazin-1-yl)propyl)urea. Following incubation, the samples were filtered rapidly under vacuum through Skatron 11731 filters, pre-soaked in 0.5% polyethylenimine, and washed with ice-cold 50 mM Tris-HCl buffer, pH 7.4, (wash setting 9,9,0) using a Skatron cell harvester. The filters were counted for radioactivity in a liquid scintillation counter (Tri-Carb 2100TR, Packard) using a scintillation cocktail (Ultima Gold MV, Perkin Elmer).
The results are expressed as a percent inhibition of the control radioligand specific binding. The IC50 value (concentration causing a half-maximal inhibition of control specific binding) and Hill coefficient (nH) were determined by non-linear regression analysis of the competition curve using Hill equation curve fitting. The inhibition constant (Ki) was calculated from the Cheng Prusoff equation: (Ki=IC50/(1+(L/KD)), where L=concentration of radioligand in the assay, and KD=affinity of the radioligand for the receptor.

human MCH-1 receptor, sequence (Q99705 whole entry): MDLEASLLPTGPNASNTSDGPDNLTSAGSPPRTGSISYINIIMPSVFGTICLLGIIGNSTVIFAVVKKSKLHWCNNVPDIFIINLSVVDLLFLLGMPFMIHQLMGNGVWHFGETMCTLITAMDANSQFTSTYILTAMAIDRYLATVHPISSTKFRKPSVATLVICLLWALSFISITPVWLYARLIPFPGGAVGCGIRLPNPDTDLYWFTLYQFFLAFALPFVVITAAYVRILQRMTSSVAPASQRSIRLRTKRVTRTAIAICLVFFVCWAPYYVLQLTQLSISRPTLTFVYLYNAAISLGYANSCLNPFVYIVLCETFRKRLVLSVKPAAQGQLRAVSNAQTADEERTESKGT

Take `Cl.O=c1cc(-c2ccc(C(F)(F)F)nc2)ccn1-c1ccc2c3c([nH]c2c1)CC1CCCN1C3` (stereo not shown) [Example 41, 1-(2,3,5,10,11,11a-Hexahydro-1H-indolizino[7,6-b]indol-8-yl)-4-(6-(trifluoromethyl)pyridin-3-yl)pyridin-2(1H)-one Hydrochloride]: the melting point lay within 275 to 285 °C. Moreover, at human MCH-1 receptor, the Ki worked out at 14 nM.

Compound `Cl.Cn1c2c(c3ccc(-n4ccc(-c5ccc(C(F)(F)F)cc5)cc4=O)nc31)CN1CCCC1C2` (stereo not shown) [Example 52, 1-(11-Methyl-5,7,8,9,9a,10-hexahydro-11H-pyrido[3′,2′:4,5]pyrrolo[3,2-f]indolizin-2-yl)-4-(4-(trifluoromethyl)phenyl)pyridin-2(1H)-one Hydrochloride] came in with a melting point of 300 to 305 °C. In addition, the Ki on human MCH-1 receptor was 17 nM. Take `Cl.O=c1cc(-c2ccc(C(F)(F)F)nc2)ccn1-c1ccc2c3c([nH]c2c1)CCN1CCCC31` (stereo not shown) [Example 27, 1-(2,3,5,6,7,11c-Hexahydro-1H-indolizino[7,8-b]indol-9-yl)-4-(6-(trifluoromethyl)pyridin-3-yl)pyridin-2(1H)-one Hydrochloride]: the melting point was 205 to 215 °C. On human MCH-1 receptor, this compound had a Ki of 34 nM. As to `Cl.Cn1c2c(c3ccc(-n4ccc(OCc5ccccc5)cc4=O)cc31)CCN1CCCC21` (single isomer, unassigned; (-)) [Example 3, (−)4-(Benzyloxy)-1-(11-methyl-2,3,5,6,11,11b-hexahydro-1H-indolizino[8,7-b]indol-9-yl)pyridin-2(1H)-one Hydrochloride], the melting point was in the range of 224 to 228 °C. The same compound showed a Ki on human MCH-1 receptor (Hydrochloride) of 17.3 nM. In the same order, the values of `Cl.Cn1c2c(c3ccc(-n4ccc(OCc5ccccc5)cc4=O)cc31)CCN1CCCC21` (stereo not shown) [Example 2, 4-(Benzyloxy)-1-(11-methyl-2,3,5,6,11,11b-hexahydro-1H-indolizino[8,7-b]indol-9-yl)pyridin-2(1H)-one Hydrochloride] are 167 to 170 °C and 14.9 nM. In the same order, the values of `Cl.Cn1c2c(c3ccc(-n4ccc(OCc5ccccc5)cc4=O)cc31)CCN1CCCC21` (single isomer, unassigned; (+)) [Example 4, (+)4-(Benzyloxy)-1-(11-methyl-2,3,5,6,11,11b-hexahydro-1H-indolizino[8,7-b]indol-9-yl)pyridin-2(1H)-one Hydrochloride] are 227 to 230 °C and 12.3 nM. `Cl.Cn1c2c(c3ccc(-n4ccc(OCc5ccc(C(F)(F)F)nc5)cc4=O)cc31)C1CCCN1CC2` (stereo not shown) [Example 18, 1-(7-Methyl-2,3,5,6,7,11c-hexahydro-1H-indolizino[7,8-b]indol-9-yl)-4-((6-(trifluoromethyl)pyridin-3-yl)methoxy)pyridin-2(1H)-one Hydrochloride]: the melting point was 250 to 254 °C. For the same compound, the Ki at human MCH-1 receptor amounted to 12 nM. Consider `Cl.Cn1c2c(c3ccc(-n4ccc(OCc5ccc(F)cc5F)cc4=O)nc31)C1CCCN1CC2` (stereo not shown) [Example 46, 4-(2,4-Difluorobenzyloxy)-1-(7-methyl-2,3,5,6,7,11c-hexahydro-1H-pyrido[3′,2′:4,5]pyrrolo[2,3-g]indolizin-9-yl)pyridin-2(1H)-one Hydrochloride], for which the melting point was in the range of 134 to 145 °C. In addition, the Ki on human MCH-1 receptor is 16 nM. With `Cl.Cn1c2c(c3ccc(-n4ccc(OCc5ccccc5)cc4=O)nc31)CN1CCCC1C2` (stereo not shown) [Example 50, 4-(Benzyloxy)-1-(11-methyl-5,7,8,9,9a,10-hexahydro-11H-pyrido[3′,2′:4,5]pyrrolo[3,2-f]indolizin-2-yl)pyridin-2(1H)-one Hydrochloride], the melting point was in the range of 240 to 250 °C. Besides, the Ki on human MCH-1 receptor came out at 16 nM. `Cl.Cn1c2c(c3ccc(-n4ccc(OCc5ccc(F)cn5)cc4=O)cc31)CN1CCCCC1C2` (single isomer, unassigned; (-)) [Example 38, (−)-4-((5-Fluoropyridin-2-yl)methoxy)-1-(5-methyl-5,6,6a,7,8,9,10,12-octahydroindolo[2,3-b]quinolizin-3-yl)pyridin-2(1H)-one Hydrochloride] yielded a melting point of 270 to 280 °C. Moreover, the affinity at human MCH-1 receptor (Hydrochloride) corresponds to a Ki of 19 nM. In the case of `Cl.Cn1c2c(c3ccc(-n4ccc(OCc5ccccc5)cc4=O)cc31)C1CCCN1CC2` (stereo not shown) [Example 17, 4-(Benzyloxy)-1-(7-methyl-2,3,5,6,7,11c-hexahydro-1H-indolizino[7,8-b]indol-9-yl)pyridin-2(1H)-one Hydrochloride], the melting point lay in the range of 260 to 264 °C. Besides, the Ki at human MCH-1 receptor was determined as 12 nM.

For `Cl.Cn1c2c(c3ccc(-n4ccc(OCc5ccccc5)cc4=O)cc31)C1CCCCN1CC2` (stereo not shown) [Example 22, 4-(Benzyloxy)-1-(8-methyl-1,2,3,4,6,7,8,12c-octahydroindolo[3,2-a]quinolizin-10-yl)pyridin-2(1H)-one Hydrochloride], the melting point was in the range of 250 to 253 °C. The compound also had a Ki on human MCH-1 receptor of 21 nM. In turn, `Cl.Cn1c2c(c3ccc(-n4ccc(OCc5ccc(Cl)cn5)cc4=O)cc31)CCN1CCCCC21` (stereo not shown) [Example 8, 4-((5-Chloropyridin-2-yl)methoxy)-1-(12-methyl-1,2,3,4,6,7,12,12b-octahydroindolo[2,3-a]quinolizin-10-yl)pyridin-2(1H)-one Hydrochloride] displayed a melting point of 204 to 208 °C. On human MCH-1 receptor, the affinity corresponds to a Ki of 20 nM. `Cc1ccc(COc2ccn(-c3ccc4c5c(n(C)c4c3)CCN3CCCC53)c(=O)c2)cn1` (stereo not shown) (as salt: hydrochloride) [Example 20, 1-(7-Methyl-2,3,5,6,7,11c-hexahydro-1H-indolizino[7,8-b]indol-9-yl)-4-((6-methylpyridin-3-yl)methoxy)pyridin-2(1H)-one Dihydrochloride] came in with a melting point of 280 to 282 °C. In turn, `Cn1c2c(c3ccc(-n4ccc(OCc5ccc(F)cn5)cc4=O)cc31)CN1CCCC1C2` (stereo not shown) (as salt: hydrochloride) [Example 12, 4-((5-Fluoropyridin-2-yl)methoxy)-1-(10-methyl-2,3,5,10,11,11a-hexahydro-1H-indolizino[7,6-b]indol-8-yl)pyridin-2(1H)-one Hydrochloride] displayed a melting point of 290 to 293 °C.

`Cc1ccc(COc2ccn(-c3ccc4c5c(n(C)c4c3)CCN3CCCCC53)c(=O)c2)cn1` (stereo not shown) (as salt: hydrochloride) [Example 23, 1-(8-Methyl-1,2,3,4,6,7,8,12c-octahydroindolo[3,2-a]quinolizin-10-yl)-4-((6-methylpyridin-3-yl)methoxy)pyridin-2(1H)-one Dihydrochloride] gave a melting point of 210 to 214 °C. The compound `Cc1ccc(-c2ccn(-c3ccc4c5c(n(C)c4c3)CC3CCCCN3C5)c(=O)c2)cn1` (stereo not shown) (as salt: hydrochloride) [Example 35, 1-(5-Methyl-5,6,6a,7,8,9,10,12-octahydroindolo[2,3-b]quinolizin-3-yl)-4-(6-methylpyridin-3-yl)pyridin-2(1H)-one Dihydrochloride] gave a melting point of 256 to 260 °C. `Cn1c2c(c3ccc(-n4ccc(OCc5ccc(F)cn5)cc4=O)cc31)C1CCCN1CC2` (stereo not shown) (as salt: hydrochloride) [Example 19, 4-((5-Fluoropyridin-2-yl)methoxy)-1-(7-methyl-2,3,5,6,7,11c-hexahydro-1H-indolizino[7,8-b]indol-9-yl)pyridin-2(1H)-one Dihydrochloride] displayed a melting point of 240 to 243 °C.

These data come from patent US8618299B2, “Azinone-substituted azapolycycle MCH-1 antagonists, methods of making, and use thereof” (Albany Molecular Research, Inc., priority 2009, dated 2013).
